Values after ≈ are worked out from the molar mass of the structure shown.

Usually IC50 stands for the concentration that inhibits the measured activity by half. As a reminder, the CC50 is the concentration that lowers cell viability or growth by half. Low readings indicate harm at low concentration, high ones better tolerance by the cells.

Data set [1] relates to HEL. Put plainly: Antiviral activity against Cytomegalovirus (AD-169 strain) to reduce plaque formation in human embryonic lung (HEL) cells. The class given is functional, cell-based.
Data set [2] relates to HEL. The data set can be described thus: Cytotoxicity (to alter cell morphology) against Cytomegalovirus in human embryonic lung (HEL) cells. The class given is functional.
Data set [3] has as its system HEL. The data set can be described thus: Antiviral activity against Cytomegalovirus (Davis strain) to reduce plaque formation in human embryonic lung (HEL) cells. The class given is functional, cell-based.
The nature of data set [4]: Cytotoxicity (to reduce cell growth) against Cytomegalovirus in human embryonic lung (HEL) cells. The class given is cell-based.
In data set [5] the test system is E6SM. Put plainly: Antiviral activity (to reduce virus-induced cytopathogenicity) against Herpes simplex virus-1(KOS) in E6SM cell cultures. The class given is functional. Conditions: Homo sapiens. For orientation: Cytopathic effects are the visible damage that an infection or toxin causes in cultured cells.
For data set [6], the system named is E6SM. The data set can be described thus: Antiviral activity (to reduce virus-induced cytopathogenicity) against Herpes simplex virus-1 TK-B2006 in E6SM cell cultures. The class given is functional. Conditions: Homo sapiens.
In data set [7] the test system is HEL. The data set can be described thus: Antiviral activity against thymidine kinase-positive (TK+) OKA strain of Varicella zoster virus to reduce plaque formation in human embryonic lung (HEL) cells. The class given is functional, cell-based.
Data set [8] has as its system HeLa. The data set can be described thus: Antiviral activity (to reduce virus-induced cytopathogenicity) against Polio virus-I in HeLa cells. The class given is functional. Conditions: Homo sapiens.
Data set [9] has as its system Vero. Put plainly: Antiviral activity (to reduce virus-induced cytopathogenicity) against forest virus in vero cells. The class given is functional. Conditions: Chlorocebus sabaeus.
Data set [10] relates to E6SM. Put plainly: Cytotoxicity (to alter cell morphology) against E6SM cell cultures. The class given is functional. Conditions: Homo sapiens.
The subject of data set [11] is HEL. The data set can be described thus: Antiviral activity against thymidine kinase-positive (TK+) YS strain of Varicella zoster virus to reduce plaque formation in human embryonic lung (HEL) cells. The class given is functional, cell-based.
In data set [12] the test system is Vero. The data set can be described thus: Antiviral activity (to reduce virus-induced cytopathogenicity) against Parainfluenza-3 virus in vero cells. The class given is functional. Conditions: Chlorocebus sabaeus.
In data set [13] the test system is HeLa. The data set can be described thus: Cytotoxicity (to alter cell morphology) against HeLa cells. The class given is functional. Conditions: Homo sapiens.
Data set [14] deals with HeLa. The data set can be described thus: Antiviral activity (to reduce virus-induced cytopathogenicity) against Coxsackie virus B4 in HeLa cells. The class given is functional. Conditions: Homo sapiens.
The test system of data set [15] is HeLa. Put plainly: Antiviral activity (to reduce virus-induced cytopathogenicity) against Vesicular stomatitis virus in HeLa cells. The class given is functional. Conditions: Homo sapiens.
The subject of data set [16] is E6SM. Put plainly: Antiviral activity (to reduce virus-induced cytopathogenicity) against Vaccinia virus in E6SM cell cultures. The class given is functional. Conditions: Homo sapiens.
The nature of data set [17]: Cytotoxicity (to reduce cell growth) against Varicella-Zoster virus in human embryonic lung (HEL) cells. The class given is cell-based.
Data set [18] relates to E6SM. The data set can be described thus: Antiviral activity (to reduce virus-induced cytopathogenicity) against Herpes simplex virus-1 TK-VMW1837 in E6SM cell cultures. The class given is functional. Conditions: Homo sapiens.
In data set [19] the test system is E6SM. The data set can be described thus: Antiviral activity (to reduce virus-induced cytopathogenicity) against Herpes simplex virus-2 (G) in E6SM cell cultures. The class given is functional. Conditions: Homo sapiens.
Data set [20] relates to HEL. The data set can be described thus: Antiviral activity against thymidine kinase-negative (TK-) O7/1 strain of Varicella zoster virus to reduce plaque formation in human embryonic lung (HEL) cells. The class given is functional, cell-based.
Data set [21] relates to HEL. Put plainly: Cytotoxicity (to alter cell morphology) against Varicella-Zoster virus in human embryonic lung (HEL) cells. The class given is functional.
Data set [22] relates to Vero. The data set can be described thus: Antiviral activity (to reduce virus-induced cytopathogenicity) against Sindbis virus in vero cells. The class given is functional. Conditions: Chlorocebus sabaeus.
Data set [23] relates to Vero. Put plainly: Antiviral activity (to reduce virus-induced cytopathogenicity) against Reovirus-1 in vero cells. The class given is functional. Conditions: Chlorocebus sabaeus.
Data set [24] deals with Vero. The data set can be described thus: Antiviral activity (to reduce virus-induced cytopathogenicity) against Coxsackie virus in vero cells. The class given is functional. Conditions: Chlorocebus sabaeus.
Data set [25] deals with E6SM. Put plainly: Antiviral activity (to reduce virus-induced cytopathogenicity) against Vesicular stomatitis virus in E6SM cell cultures. The class given is functional. Conditions: Homo sapiens.
Data set [26] has as its system Vero. The data set can be described thus: Minimum cytotoxic concentration (to alter cell morphology) against vero cells. The class given is functional. Conditions: Chlorocebus sabaeus.
For data set [27], the system named is HEL. The data set can be described thus: Antiviral activity against thymidine kinase-negative (TK-) YS/R strain of Varicella zoster virus to reduce plaque formation in human embryonic lung (HEL) cells. The class given is functional, cell-based.

For the compound `Nc1nc2c(ncn2COC(CO)CO)c(=O)[nH]1` [GANCICLOVIR], the IC50 in the data set with HEL [1] came to 2 mg/L (≈ 7.84 µM); in the data set with HEL [3], 1.5 mg/L (≈ 5.88 µM). The MCC with HEL [2] is over 100 µg/mL. The midpoint of cytotoxicity in data set [4], the CC50, lay at 200 mg/L (≈ 784 µM).
Regarding `OCCOCc1c(-c2ccccc2)nc2ccccn12`, the MIC in the data set on E6SM [5] is over 200 mg/L; with E6SM [6] it was over 100 mg/L; against HeLa [8] it was over 200 mg/L; in the data set on Vero [9], over 200 mg/L; against Vero [12], 70 mg/L (≈ 261 µM); against HeLa [14], over 200 mg/L. Besides, the MIC was over 200 mg/L against HeLa [15]; over 200 mg/L in the data set with E6SM [16]; over 100 mg/L against E6SM [18]; over 200 mg/L against E6SM [19]; over 200 mg/L in the data set with Vero [22]; over 200 mg/L against Vero [23]. Besides, the MIC with Vero [24] was over 200 mg/L; against E6SM [25], over 100 mg/L. Besides, the IC50 with HEL [7], in the data set on HEL [1], in the data set on HEL [11], in the data set on HEL [3], with HEL [20] and in the data set with HEL [27] was over 40 mg/L each time. For the same compound, the MCC was over 200 µg/mL in the data set on E6SM [10]; 100 µg/mL in the data set on HEL [2]; 400 µg/mL with HeLa [13]; over 40 µg/mL with HEL [21]; 400 µg/mL with Vero [26]. Besides, the CC50 came out at 135 mg/L (≈ 503 µM) in data set [17] and 130 mg/L (≈ 485 µM) in [4].
Take `Nc1nc2c(ncn2COCCO)c(=O)[nH]1` [ACYCLOVIR]: the IC50 in the data set on HEL [7] amounted to 0.23 mg/L (≈ 1.02 µM); in the data set on HEL [11], 0.32 mg/L (≈ 1.42 µM); in the data set with HEL [27], 9 mg/L (≈ 40 µM). The compound further displayed a CC50 in [17] of over 50 mg/L. Moreover, the MCC with HEL [21] was over 40 µg/mL.
Consider `Nc1ncnc2c1ncn2C[C@H](O)CO` [(S)-DHPA], for which the MIC is 100 mg/L (≈ 478 µM) in the data set with E6SM [5]; 200 mg/L (≈ 956 µM) in the data set with E6SM [6]; over 400 mg/L against HeLa [8]; over 400 mg/L in the data set on Vero [9]; 20 mg/L (≈ 95.6 µM) with Vero [12]; over 400 mg/L against HeLa [14]. For the same compound, the MIC in the data set with HeLa [15] was 70 mg/L (≈ 335 µM); with E6SM [16] it was 40 mg/L (≈ 191 µM); against E6SM [18], 100 mg/L (≈ 478 µM); against E6SM [19], over 400 mg/L; in the data set with Vero [22], over 400 mg/L; with Vero [23], 40 mg/L (≈ 191 µM). In addition, the MIC was over 400 mg/L against Vero [24] and 40 mg/L (≈ 191 µM) in the data set with E6SM [25]. Moreover, the MCC in the data set with E6SM [10], in the data set on HeLa [13] and with Vero [26] was over 400 µg/mL in each case.
On to `O=c1[nH]c(=O)n([C@H]2C[C@H](O)[C@@H](CO)O2)cc1/C=C/Br` [BRIVUDINE], for which the MIC was 0.004 mg/L (≈ 0.012 µM) with E6SM [5]; 2 mg/L (≈ 6 µM) against E6SM [6]; over 400 mg/L with HeLa [8]; over 400 mg/L in the data set on Vero [9]; over 400 mg/L in the data set with Vero [12]; over 400 mg/L against HeLa [14]. The MIC is over 400 mg/L in the data set on HeLa [15]; 0.2 mg/L (≈ 0.6 µM) in the data set with E6SM [16]; 1 mg/L (≈ 3 µM) against E6SM [18]; 20 mg/L (≈ 60 µM) with E6SM [19]; over 400 mg/L in the data set with Vero [22]; over 400 mg/L in the data set on Vero [23]. Besides, the MIC against Vero [24] and against E6SM [25] was over 400 mg/L in each case. Also, the MCC in the data set on E6SM [10], in the data set with HeLa [13] and with Vero [26] was over 400 µg/mL in each case.
